Experimental data published in patent US20250360160A1, “NEW MEDICAL USE OF TAFOXIPARIN” (DILAFOR AB, priority 2022, published 2025).

Test system: term pregnant, nulliparous women with an unripe cervix
Test: Clinical phase II trial PPL17 (Parts A and B), subcutaneous tafoxiparin vs placebo
Format: in vivo, human
Settings: for Labor induced with PGE-1, percent of subjects: placebo 10.2%; for Fetal distress as indication for operative delivery (ODFD), percent of patients: placebo 22.7%; for Percent of patients with operative delivery / proportion of women needing instrumental delivery: placebo 45.5%; for Labor induced with oxytocin, percent of subjects / proportion of women reaching spontaneous onset of labor with uncomplicated delivery: placebo 54.5%; for Labor induced with amniotomy, percent of subjects: placebo 56.8%; for Labor induction with Balloon catheter, percent of subjects: placebo 58.0%; for Labor induced, percent of subjects: placebo 70.5%; for number of women needing instrumental delivery: spontaneous onset of labor; for proportion reaching partus by vaginal delivery with no need for instrumental delivery nor caesarian section: placebo 48%; for proportion reaching partus by vaginal delivery with no need for instrumental delivery nor caesarian section / proportion of women needing instrumental delivery or caesarian section to reach partus: FIG. 5; for proportion of women needing instrumental delivery or caesarian section to reach partus: placebo 52%; for proportion of women needing instrumental delivery: vaginal mode of partus, FIG. 4; for number of subjects (women) that reach spontaneous onset of labor / percent of subjects (women) that reach spontaneous onset of labor: n=37
Method: A clinical phase II trial is performed as a randomized, double-blind, placebo-controlled, parallel-group proof of concept study (Part A) with a conditional dose finding follow up study (Part B) to evaluate the efficacy, safety, tolerability and dose response of subcutaneously administered tafoxiparin as a supplement to induction therapy in term pregnant, nulliparous women with an unripe cervix. The study is performed in Sweden and Finland (PPL17), and an EMA (European Medicines Agency) description of the study can be found on the EU Clinical Trials Register web (www.clinicaltrialsregister.eu/ctr-search/search?query=PPL17).
A total of 170 term pregnant women are randomized to receive either 300 mg of tafoxiparin, or corresponding placebo (vehicle), administered subcutaneously every 24±3 hours and up to a total of 7 doses, or until partus (Part A).
In the dose finding follow up study (Part B), a total of 164 term pregnant women are randomized to receive either 75 or 150 mg of tafoxiparin administered subcutaneously every 24±3 hours […] and up to a total of 7 doses, or until partus.
To assess the efficacy of tafoxiparin on cervical ripening/cervical ripening rate, during and up to the first seven days of treatment, measured by Bishop score. All women must be examined to check the cervical state before enrollment.
Time from start of treatment to increase in Bishop score of ≥2 points or spontaneous onset of labor, whichever comes first. Time from start of treatment to increase in Bishop score of ≥3 points or spontaneous onset of labor, whichever comes first. Time from start of treatment to increase in Bishop score of ≥4 points or spontaneous onset of labor, whichever comes first.
Cervical ripening as measured by change from baseline to end of treatment in Bishop Score. Time from onset of labor to partus, where onset of labor is defined as last record of 4 cm cervical dilatation visualized in the partogram and progress of labor, or last record of 4 cm of cervical dilatation in combination with amniotomy and intravenous administration oxytocin.
Proportion of women with spontaneous onset of labor (Response group I).
Tafoxiparin/Placebo is supplied by Dilafor AB to the site as kits designed to constitute 300 mg of tafoxiparin or placebo for daily administration. Apart from the active substance, each ml of study drug will constitute 0.015 M phosphate buffer. The study medication kit for each patient will contain 8 doses consisting of 2 vials containing a minimum extractable volume of 1.6 ml of 150 mg/ml of tafoxiparin or placebo. One dose is a reserve dose in case a dose is rendered unusable. The investigational product should be administered subcutaneously every 24±3hours by the site staff for up to 7 doses, or until partus. At each dosing time 1.0 ml of the drug will be extracted from each of the 2 vials and injected as separate s.c. injections in the abdominal or hip region.
Tafoxiparin/Placebo is supplied by Dilafor AB to the site as kits designed to constitute 75 or 150 mg of tafoxiparin for daily administration. Apart from the active substance, each ml of study drug will constitute 0.015 M phosphate buffer. The study medication kit for each patient will contain 8 doses consisting of 2 vials for each injection occasion containing a minimum extractable volume of 1.6 ml of 150 mg/ml of tafoxiparin or placebo. For subjects receiving 75 mg of tafoxiparin, one vial will contain active substance and one containing placebo. For subjects receiving 150 mg of tafoxiparin, both vials will contain active substance. One dose is a reserve dose in case a dose is rendered unusable. The investigational product should be administered subcutaneously every 24±3 hours by the site staff for up to 7 doses, or until partus. At each dosing time, 0.5 ml of the drug will be extracted from each of the 2 vials and injected as separate s.c. injections in the abdominal or hip region. […]

[1] = 150 mg, n = 85, listed as tafoxiparin
[2] = 150 mg, women with spontaneous onset of labor, of 36
[3] = 300 mg, n = 91, listed as tafoxiparin
[4] = 300 mg, women with spontaneous onset of labor, of 37

tafoxiparin
Labor induced with PGE-1, percent of subjects [1]: 8.2% | Fetal distress as indication for operative delivery (ODFD), percent of patients (150 mg, n = 85): 23.5% | Percent of patients with operative delivery (150 mg, n = 85): 48.2% | Labor induced with oxytocin, percent of subjects (150 mg, n = 85): (44.7%) | Labor induced with oxytocin, percent of subjects [1]: 44.7% | Labor induced with amniotomy, percent of subjects (150 mg, n = 85): (45.9%) | Labor induced with amniotomy, percent of subjects [1]: 45.9% | Labor induction with Balloon catheter, percent of subjects (150 mg, n = 85): (43.5%) | Labor induction with Balloon catheter, percent of subjects [1]: 43.5% | Labor induced, percent of subjects (150 mg, n = 85): (56.5%) | Labor induced, percent of subjects [1]: 56.5% | number of women reaching spontaneous onset of labor with uncomplicated delivery (150 mg, of 32 women): 23 women | proportion of women reaching spontaneous onset of labor with uncomplicated delivery (150 mg, of 32 women): 71.9% | number of women needing instrumental delivery or caesarian section to reach partus (150 mg, of 36 women): 13 women | number reaching partus by vaginal delivery with no need for instrumental delivery nor caesarian section (150 mg, of 36 women): 23 women | number of women achieving spontaneous onset of labor (150 mg, of 85 women): 36 women | number of women needing instrumental delivery (150 mg, of 32 women): 9 women | proportion reaching partus by vaginal delivery with no need for instrumental delivery nor caesarian section [2]: 63.9% | proportion of women needing instrumental delivery or caesarian section to reach partus [2]: 36.1% | proportion of women needing instrumental delivery (150 mg, women with spontaneous onset of labor, of 32, p 0.422): 28.1% | time point of spontaneous onset of labor (change of Bishop score) (300 mg and 150 mg vs 75 mg and placebo, FIG. 3): achieved spontaneous onset of labor at an earlier time point | proportion of women achieving spontaneous onset of labor (300 mg daily s.c., of 90 women, p=0.089, placebo 28.7%, FIG. 1): 41.1% | number of subjects (women) that reach spontaneous onset of labor (300 mg, Study day 1): 2 | percent of subjects (women) that reach spontaneous onset of labor (300 mg, Study day 1): (5%) | number of subjects (women) that reach spontaneous onset of labor (300 mg, Study day 2): 11 | percent of subjects (women) that reach spontaneous onset of labor (300 mg, Study day 2): (30%) | number of subjects (women) that reach spontaneous onset of labor (300 mg, Study day 3): 18 | percent of subjects (women) that reach spontaneous onset of labor (300 mg, Study day 3): (49%) | number of subjects (women) that reach spontaneous onset of labor (300 mg, Study day 4): 23 | percent of subjects (women) that reach spontaneous onset of labor (300 mg, Study day 4): (62%) | number of subjects (women) that reach spontaneous onset of labor (300 mg, Study day 5): 30 | percent of subjects (women) that reach spontaneous onset of labor (300 mg, Study day 5): (81%) | number of subjects (women) that reach spontaneous onset of labor (300 mg, Study day 6): 34 | percent of subjects (women) that reach spontaneous onset of labor (300 mg, Study day 6): (92%) | number of subjects (women) that reach spontaneous onset of labor (300 mg, Study day 7): 37 | percent of subjects (women) that reach spontaneous onset of labor (300 mg, Study day 7): (100%) | Fetal distress as indication for operative delivery (ODFD), number of patients (300 mg, n = 91): 11 | Labor induced with PGE-1, number of subjects (300 mg, n = 91): 5 | Labor induced with amniotomy, number of subjects (300 mg, n = 91): 50 | Labor induced with oxytocin, number of subjects (300 mg, n = 91): 45 | Labor induction with Balloon catheter, number of subjects (300 mg, n = 91): 42 | Labor induced, number of subjects (300 mg, n = 91, onset of labor with intervention): 53 | Labor induced with PGE-1, percent of subjects (300 mg, n = 91): (5.5%) | Labor induced with PGE-1, percent of subjects [3]: 5.5% | Fetal distress as indication for operative delivery (ODFD), percent of patients (300 mg, n = 91): 12.1% | Percent of patients with operative delivery (300 mg, n = 91): 35.2% | Labor induced with oxytocin, percent of subjects (300 mg, n = 91): (49.5%) | Labor induced with oxytocin, percent of subjects [3]: 49.5% | Labor induced with amniotomy, percent of subjects (300 mg, n = 91): (54.9%) | Labor induced with amniotomy, percent of subjects [3]: 54.9% | Labor induction with Balloon catheter, percent of subjects (300 mg, n = 91): (46.2%) | Labor induction with Balloon catheter, percent of subjects [3]: 46.2% | Labor induced, percent of subjects (300 mg, n = 91): (58.2%) | Labor induced, percent of subjects [3]: 58.2% | number of women reaching spontaneous onset of labor with uncomplicated delivery (300 mg, of 33 women): 27 women | proportion of women reaching spontaneous onset of labor with uncomplicated delivery (300 mg, of 33 women): 81.8% | number of women needing instrumental delivery or caesarian section to reach partus (300 mg, of 37 women): 10 women | number reaching partus by vaginal delivery with no need for instrumental delivery nor caesarian section (300 mg, of 37 women): 27 women | number of women achieving spontaneous onset of labor (300 mg, of 90 women): 37 women | number of women needing instrumental delivery (300 mg, of 33 women): 6 women | proportion reaching partus by vaginal delivery with no need for instrumental delivery nor caesarian section [4]: 73% | proportion of women needing instrumental delivery or caesarian section to reach partus [4]: 27% | proportion of women needing instrumental delivery (300 mg, women with spontaneous onset of labor, of 33, p=0.048): 18.2% | achieving spontaneous onset of labor (conclusion) (all three doses 300 mg, 150 mg and 75 mg): effective for achieving spontaneous onset of labor | mode of partus (conclusion) (all three doses 300 mg, 150 mg and 75 mg, compared to placebo): effective for a person to reach partus by vaginal delivery and with less need for instrumental delivery or caesarian section | need for instrumental delivery (conclusion) (all three doses (300 mg, 150 mg and 75 mg), women with spontaneous onset of labor, vs placebo): effective in reducing the need for instrumental delivery | need for intervention to achieve onset of labor (conclusion) (all three doses, compared to placebo): reduced the need for intervention in order to achieve onset of labor | effect on cervical ripening (doses 300 mg and 150 mg, FIG. 3): beneficial effect on cervical ripening | estimated cervical ripening rate measured by Bishop score (first 7 days of treatment, all three doses (300 mg, 150 mg and 75 mg) compared to placebo, FIG. 6): higher | labor time up to vaginal delivery (partus) (women with spontaneous onset of labor, 300 mg (p=0.070), 150 mg (p 0.654), 75 mg (p 0.114) vs placebo, FIG. 2): shorter labor time up to vaginal delivery (partus) compared to placebo
